Data taken from US9096593B2, “Compounds and methods for kinase modulation, and indications therefor” (Plexxikon Inc., priority 2009, dated 2015).

Columns and labels:
[1] = Turbidity assay of relative solubility in aqueous buffers; type: physicochemical; settings: for turbidity threshold (L, M, H) 1.4: pH 1.4 as headed (method: SGF pH 1.5); for turbidity threshold (L, M, H) 4.5: pH 4.5 (SIF); for turbidity threshold (L, M, H) 6.8: pH 6.8 (SIF); for turbidity threshold (L, M, H) 7.4: pH 7.4 (HEPES)
Outline: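 Turbidity was read spectrophotometrically at 490, 535 and 650 nm, and the endpoint is the concentration where OD passes 0.01, as the mean of the three wavelengths. Compounds came from 25 mM DMSO stock in 1:1 serial dilutions, added to HEPES pH 7.4, SIF pH 6.8 or 4.5 (0.05M NaH2PO4), or SGF pH 1.5 (0.5M NaCl).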

[2] = target: BCR-KIT/BaF3 cells (Homo sapiens, UniProt P10721); assay: BCR-KIT/BaF3 cell proliferation assay (ATPlite); type: cell-based; settings: read-out: BCR/BaF3 (IC50 μM) Kit
Outline: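 BCR-KIT/BaF3 cells plated at 10,000/well in G418-containing medium without IL-3/WEHI; MV-4-11 at 25,000/well in medium with 10% FBS. Compound given as 8-point 1:3 titration, top 10 μM final, 3 days at 37 °C. Viability read as ATPlite luminescence; IC50 from concentration curve.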

Sequence of BCR-KIT/BaF3 cells (P10721 26-976 limits assumed, change not shown): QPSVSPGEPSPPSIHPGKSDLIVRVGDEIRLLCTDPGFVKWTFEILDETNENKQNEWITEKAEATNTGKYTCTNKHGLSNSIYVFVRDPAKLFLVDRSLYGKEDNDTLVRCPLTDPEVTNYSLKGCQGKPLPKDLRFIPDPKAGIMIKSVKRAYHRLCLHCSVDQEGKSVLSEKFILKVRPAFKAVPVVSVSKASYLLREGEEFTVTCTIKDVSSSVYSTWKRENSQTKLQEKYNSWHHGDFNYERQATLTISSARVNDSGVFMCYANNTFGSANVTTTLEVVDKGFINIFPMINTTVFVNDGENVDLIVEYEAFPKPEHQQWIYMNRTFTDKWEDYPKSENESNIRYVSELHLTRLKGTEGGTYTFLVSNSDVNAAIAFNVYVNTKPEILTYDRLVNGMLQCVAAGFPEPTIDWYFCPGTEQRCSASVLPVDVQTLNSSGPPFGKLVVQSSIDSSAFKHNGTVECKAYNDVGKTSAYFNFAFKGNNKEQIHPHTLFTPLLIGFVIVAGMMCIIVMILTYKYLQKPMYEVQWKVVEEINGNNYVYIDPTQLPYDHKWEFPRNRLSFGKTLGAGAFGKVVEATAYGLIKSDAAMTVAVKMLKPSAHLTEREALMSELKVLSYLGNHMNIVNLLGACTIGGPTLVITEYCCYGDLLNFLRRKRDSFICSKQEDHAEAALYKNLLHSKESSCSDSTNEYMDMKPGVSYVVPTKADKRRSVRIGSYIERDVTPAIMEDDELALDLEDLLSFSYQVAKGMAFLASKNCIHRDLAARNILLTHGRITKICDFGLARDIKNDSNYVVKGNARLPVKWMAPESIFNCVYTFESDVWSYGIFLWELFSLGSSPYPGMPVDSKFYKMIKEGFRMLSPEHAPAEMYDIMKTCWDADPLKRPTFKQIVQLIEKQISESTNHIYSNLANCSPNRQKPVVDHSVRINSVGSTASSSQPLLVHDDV

| SMILES | turbidity threshold (L, M, H) 1.4 [1] | turbidity threshold (L, M, H) 4.5 [1] | turbidity threshold (L, M, H) 6.8 [1] | turbidity threshold (L, M, H) 7.4 [1] | IC50 [2] [µM] |
| --- | --- | --- | --- | --- | --- |
| COc1ncc(CNc2ncc(Cc3c[nH]c4ncc(C)cc34)cn2)cc1F [Compound P-2073, (5-Fluoro-6-methoxy-pyridin-3-ylmethyl)-[5-(5-methyl-1H-pyrrolo[2,3-b]pyridin-3-ylmethyl)-pyrimidin-2-yl]-amine] | H (high solubility if the threshold concentration is >250 μM) | M (moderate solubility if the threshold concentration is 31.3 μM to 250 μM) | M (moderate solubility if the threshold concentration is 31.3 μM to 250 μM) | M (moderate solubility if the threshold concentration is 31.3 μM to 250 μM) | > 0.1 |
| Cc1cnc2[nH]cc(Cc3cnc(NCc4ccc(C(F)(F)F)nc4)c(F)c3)c2c1 [Compound P-2146, [3-Fluoro-5-(5-methyl-1H-pyrrolo[2,3-b]pyridin-3-ylmethyl)-pyridin-2-yl]-(6-trifluoromethyl-pyridin-3-ylmethyl)-amine] | H (high solubility if the threshold concentration is >250 μM) | M (moderate solubility if the threshold concentration is 31.3 μM to 250 μM) | M (moderate solubility if the threshold concentration is 31.3 μM to 250 μM) | L (low solubility if the threshold concentration is <31.3 μM) | > 0.1 |
| COc1ncc(CNc2ccc(Cc3c[nH]c4ncc(Cl)cc34)c(F)n2)cc1F [Compound P-2165, [5-(5-Chloro-1H-pyrrolo[2,3-b]pyridin-3-ylmethyl)-6-fluoro-pyridin-2-yl]-(5-fluoro-6-methoxy-pyridin-3-ylmethyl)-amine] | L (low solubility if the threshold concentration is <31.3 μM) | L (low solubility if the threshold concentration is <31.3 μM) | L (low solubility if the threshold concentration is <31.3 μM) | L (low solubility if the threshold concentration is <31.3 μM) | > 0.1 |
| Fc1cc(Cc2c[nH]c3ncc(Cl)cc23)cnc1NCc1ccc(C(F)(F)F)nc1 [Compound P-2172, [5-(5-Chloro-1H-pyrrolo[2,3-b]pyridin-3-ylmethyl)-3-fluoro-pyridin-2-yl]-(6-trifluoromethyl-pyridin-3-ylmethyl)-amine] | H (high solubility if the threshold concentration is >250 μM) | L (low solubility if the threshold concentration is <31.3 μM) | L (low solubility if the threshold concentration is <31.3 μM) | L (low solubility if the threshold concentration is <31.3 μM) | < 0.1 |
| CCS(=O)(=O)Nc1ccccc1CNc1ccc(Cc2c[nH]c3ncc(C)cc23)c(F)n1 [Compound P-2198, Ethanesulfonic acid (2-{[6-fluoro-5-(5-methyl-1H-pyrrolo[2,3-b]pyridin-3-ylmethyl)-pyridin-2-ylamino]-methyl}-phenyl)-amide] | M (moderate solubility if the threshold concentration is 31.3 μM to 250 μM) | L (low solubility if the threshold concentration is <31.3 μM) | L (low solubility if the threshold concentration is <31.3 μM) | L (low solubility if the threshold concentration is <31.3 μM) | > 0.1 |
